Measurements as given in patent publication US20240197695A1, “COMPOUND FOR PREVENTION OR TREATMENT OF KIDNEY DISEASE” (ONCOCROSS CO.,LTD, priority 2021, published 2024).
Like-named read-outs stand apart in the source and are kept apart here. Marks after values point to notes of the source that are not given here.

Tests used:
Assay type in all cases: in vivo, mice (C57BL/6)
[1] = Body weights of mice in diabetic nephrosis model
Procedure: (§1) STZ (Sigma-aldrich, S0130, 40 mg/kg b.w., in 0.1 M citrate buffer pH 4.5) was intraperitoneally administered to 9-week-old male mice (C57BL/6) once/1 day for 5 days to perform a first disease induction. After 7 weeks of the first induction, a second induction was performed using the same method as the first induction. For 5 days of an STZ administration period for the first induction, 10% sucrose was administered as drinking water. In addition, after 14 days of the second administration, blood glucose levels were confirmed to confirm the induction rate, and the induced animals were separated into groups. Experimental substances (R)-4-{(R)-1-[7-(3,4,5-trimethoxy-phenyl)-[1,6] naphthyridin-5-yloxy]-ethyl}pyrrolidin-2-one (BI-1002494) and cromolyn (OC-101) were administered orally into the stomach at 10 mL/kg using an administration syringe (sonde) before 16:00 daily for 12 weeks at a frequency of 7 days/week at doses shown in Table 1 below, and dexamethasone was orally administered as a positive control substance.

[2] = Feed intake of mice in diabetic nephrosis model; parameters: Feed intake, Mean: unit not given here
Procedure: as §1

[3] = Drinking water intake of mice in diabetic nephrosis model; parameters: unit not given here
Procedure: as §1

[4] = tested on: diabetic nephrosis animal models; settings: for CRE, Mean / GLU, Mean / T-CHO, Mean: after observation period, fasted
Procedure: as §1
After the observation period for mice of each group in Example 1 was terminated, all surviving animals were fasted in the same manner as when measuring blood glucose levels, and then anesthetized by inhaling isoflurane, and blood was collected from the abdominal vena cava through laparotomy. After the blood collection was completed, the veins and arteries were cut under anesthesia and exsanguinated. The collected blood was left at room temperature for 30 minutes or more and then centrifuged at 3,000 rpm for 20 minutes. Thereafter, glucose, Blood urea nitrogen (BUN), and creatinine were analyzed using an automated blood biochemistry analyzer (Hitachi 3100, Hitachi Co. Ltd., Japan). Indoxyl sulfate (a substance that was mainly produced in the intestines to cause renal injury, and a substance that caused end-stage renal failure by advancing renal function damage in patients with renal failure during hemodialysis) was analyzed using LC MS/MS. In addition, blood insulin was analyzed according to a method represented by a commercial Mouse Insulin ELISA KIT (#AKRIN-011T, Sibayagi Co. Ltd., Japan).

SMILES: COc1cc(-c2cc3ncccc3c(O[C@H](C)[C@H]3CNC(=O)C3)n2)cc(OC)c1OC [BI-1002494, (R)-4-{(R)-1-[7-(3,4,5-trimethoxy-phenyl)-[1,6]naphthyridin-5-yloxy]-ethyl}pyrrolidin-2-one]
- Body weight compared to the disease control group ([1]; 12.5 mg/kg administered group, after week 5 of administration): statistically significantly increased
- Body weight, Mean ([1]; 12.5 mg/kg/day oral, week 0): 24 g
- Body weight, Mean ([1]; 12.5 mg/kg/day oral, week 1): 23.7 g
- Body weight, Mean ([1]; 12.5 mg/kg/day oral, week 2): 23.8 g
- Body weight, Mean ([1]; 12.5 mg/kg/day oral, week 3): 24.1 g
- Body weight, Mean ([1]; 12.5 mg/kg/day oral, week 4): 24.3 g
- Body weight, Mean ([1]; 12.5 mg/kg/day oral, week 5): 24.2^#
- Body weight, Mean ([1]; 12.5 mg/kg/day oral, week 6): 24.4^#
- Body weight, Mean ([1]; 12.5 mg/kg/day oral, week 7): 24.3^#
- Body weight, Mean ([1]; 12.5 mg/kg/day oral, week 8): 24.2^#
- Body weight, Mean ([1]; 12.5 mg/kg/day oral, week 10): 23.8^#
- Body weight compared to the disease control group ([1]; 25 mg/kg administered group, after week 8): statistically significantly increased
- Body weight, Mean ([1]; 25 mg/kg/day oral, week 0): 23.8 g
- Body weight, Mean ([1]; 25 mg/kg/day oral, week 1): 23.5 g
- Body weight, Mean ([1]; 25 mg/kg/day oral, week 2): 23.7 g
- Body weight, Mean ([1]; 25 mg/kg/day oral, week 3): 23.9 g
- Body weight, Mean ([1]; 25 mg/kg/day oral, week 4): 23.9 g
- Body weight, Mean ([1]; 25 mg/kg/day oral, week 5): 24 g
- Body weight, Mean ([1]; 25 mg/kg/day oral, week 6): 23.9 g
- Body weight, Mean ([1]; 25 mg/kg/day oral, week 7): 24 g
- Body weight, Mean ([1]; 25 mg/kg/day oral, week 8): 24.0^#
- Body weight, Mean ([1]; 25 mg/kg/day oral, week 10): 23.7^#
- Body weight compared to the disease control group ([1]; 50 mg/kg administered group, after week 8): statistically significantly increased
- Body weight, Mean ([1]; 50 mg/kg/day oral, week 0): 23.9 g
- Body weight, Mean ([1]; 50 mg/kg/day oral, week 1): 23.6 g
- Body weight, Mean ([1]; 50 mg/kg/day oral, week 2): 23.8 g
- Body weight, Mean ([1]; 50 mg/kg/day oral, week 3): 23.8 g
- Body weight, Mean ([1]; 50 mg/kg/day oral, week 4): 23.8 g
- Body weight, Mean ([1]; 50 mg/kg/day oral, week 5): 23.9 g
- Body weight, Mean ([1]; 50 mg/kg/day oral, week 6): 23.9 g
- Body weight, Mean ([1]; 50 mg/kg/day oral, week 7): 24 g
- Body weight, Mean ([1]; 50 mg/kg/day oral, week 8): 23.9^#
- Body weight, Mean ([1]; 50 mg/kg/day oral, week 10): 23.7^#
- Feed intake compared to the disease control group ([2]; 12.5 mg/kg administered group, after week 4 of administration): statistically significantly decreased
- Feed intake, Mean ([2]; 12.5 mg/kg/day oral, week 0): 6.97
- Feed intake, Mean ([2]; 12.5 mg/kg/day oral, week 1): 5.61
- Feed intake, Mean ([2]; 12.5 mg/kg/day oral, week 2): 6.23
- Feed intake, Mean ([2]; 12.5 mg/kg/day oral, week 3): 4.58
- Feed intake, Mean ([2]; 12.5 mg/kg/day oral, week 4): 5.14^#
- Feed intake, Mean ([2]; 12.5 mg/kg/day oral, week 5): 4.98
- Feed intake, Mean ([2]; 12.5 mg/kg/day oral, week 6): 5.31
- Feed intake, Mean ([2]; 12.5 mg/kg/day oral, week 7): 5.21
- Feed intake, Mean ([2]; 12.5 mg/kg/day oral, week 8): 4.26
- Feed intake, Mean ([2]; 12.5 mg/kg/day oral, week 9): 4.39
- Feed intake, Mean ([2]; 12.5 mg/kg/day oral, week 10): 4.64
- Feed intake compared to the disease control group ([2]; 25 mg/kg administered group, after week 6 of administration): statistically significantly decreased
- Feed intake, Mean ([2]; 25 mg/kg/day oral, week 0): 6.73
- Feed intake, Mean ([2]; 25 mg/kg/day oral, week 1): 5.63
- Feed intake, Mean ([2]; 25 mg/kg/day oral, week 2): 5.59
- Feed intake, Mean ([2]; 25 mg/kg/day oral, week 3): 5.26
- Feed intake, Mean ([2]; 25 mg/kg/day oral, week 4): 4.99
- Feed intake, Mean ([2]; 25 mg/kg/day oral, week 5): 5.15
- Feed intake, Mean ([2]; 25 mg/kg/day oral, week 6): 5.51^#
- Feed intake, Mean ([2]; 25 mg/kg/day oral, week 7): 5.04
- Feed intake, Mean ([2]; 25 mg/kg/day oral, week 8): 4.95
- Feed intake, Mean ([2]; 25 mg/kg/day oral, week 9): 4.62
- Feed intake, Mean ([2]; 25 mg/kg/day oral, week 10): 4.63
- Feed intake compared to the disease control group ([2]; 50 mg/kg administered group, after week 8 of administration): statistically significantly decreased
- Feed intake, Mean ([2]; 50 mg/kg/day oral, week 0): 5.98
- Feed intake, Mean ([2]; 50 mg/kg/day oral, week 1): 5.74
- Feed intake, Mean ([2]; 50 mg/kg/day oral, week 2): 4.98
- Feed intake, Mean ([2]; 50 mg/kg/day oral, week 3): 5.36
- Feed intake, Mean ([2]; 50 mg/kg/day oral, week 4): 5.14
- Feed intake, Mean ([2]; 50 mg/kg/day oral, week 5): 4.89
- Feed intake, Mean ([2]; 50 mg/kg/day oral, week 6): 5.64
- Feed intake, Mean ([2]; 50 mg/kg/day oral, week 7): 5.11
- Feed intake, Mean ([2]; 50 mg/kg/day oral, week 8): 4.86^#
- Feed intake, Mean ([2]; 50 mg/kg/day oral, week 9): 4.30
- Feed intake, Mean ([2]; 50 mg/kg/day oral, week 10): 4.14
- Drinking water intake, Mean ([3]; 12.5 mg/kg/day oral, week 0): 7.80
- Drinking water intake, Mean ([3]; 12.5 mg/kg/day oral, week 1): 7.91
- Drinking water intake, Mean ([3]; 12.5 mg/kg/day oral, week 2): 7.41
- Drinking water intake, Mean ([3]; 12.5 mg/kg/day oral, week 3): 7.39
- Drinking water intake, Mean ([3]; 12.5 mg/kg/day oral, week 4): 7.38
- Drinking water intake, Mean ([3]; 12.5 mg/kg/day oral, week 5): 7.16
- Drinking water intake, Mean ([3]; 12.5 mg/kg/day oral, week 6): 7.34
- Drinking water intake, Mean ([3]; 12.5 mg/kg/day oral, week 7): 7.24
- Drinking water intake, Mean ([3]; 12.5 mg/kg/day oral, week 8): 6.99
- Drinking water intake, Mean ([3]; 12.5 mg/kg/day oral, week 9): 7.40
- Drinking water intake, Mean ([3]; 12.5 mg/kg/day oral, week 10): 7.46
- Drinking water intake, Mean ([3]; 25 mg/kg/day oral, week 0): 7.07
- Drinking water intake, Mean ([3]; 25 mg/kg/day oral, week 1): 7.62
- Drinking water intake, Mean ([3]; 25 mg/kg/day oral, week 2): 7.86
- Drinking water intake, Mean ([3]; 25 mg/kg/day oral, week 3): 7.38
- Drinking water intake, Mean ([3]; 25 mg/kg/day oral, week 4): 6.73
- Drinking water intake, Mean ([3]; 25 mg/kg/day oral, week 5): 7.19
- Drinking water intake, Mean ([3]; 25 mg/kg/day oral, week 6): 7.34
- Drinking water intake, Mean ([3]; 25 mg/kg/day oral, week 7): 7.69
- Drinking water intake, Mean ([3]; 25 mg/kg/day oral, week 8): 7.43
- Drinking water intake, Mean ([3]; 25 mg/kg/day oral, week 9): 7.54
- Drinking water intake, Mean ([3]; 25 mg/kg/day oral, week 10): 7.15
- Drinking water intake, Mean ([3]; 50 mg/kg/day oral, week 0): 7.27
- Drinking water intake, Mean ([3]; 50 mg/kg/day oral, week 1): 7.04
- Drinking water intake, Mean ([3]; 50 mg/kg/day oral, week 2): 6.07
- Drinking water intake, Mean ([3]; 50 mg/kg/day oral, week 3): 6.96
- Drinking water intake, Mean ([3]; 50 mg/kg/day oral, week 4): 7.13
- Drinking water intake, Mean ([3]; 50 mg/kg/day oral, week 5): 6.48
- Drinking water intake, Mean ([3]; 50 mg/kg/day oral, week 6): 6.93
- Drinking water intake, Mean ([3]; 50 mg/kg/day oral, week 7): 6.39
- Drinking water intake, Mean ([3]; 50 mg/kg/day oral, week 8): 6.91
- Drinking water intake, Mean ([3]; 50 mg/kg/day oral, week 9): 6.61
- Drinking water intake, Mean ([3]; 50 mg/kg/day oral, week 10): 6.22
- CRE, Mean ([4]; 12.5 mg/kg/day oral): 0.1 mg/dL
- GLU, Mean ([4]; 12.5 mg/kg/day oral): 317.1^# mg/dL
- T-CHO, Mean ([4]; 12.5 mg/kg/day oral): 141.6 mg/dL
- CRE, Mean ([4]; 25 mg/kg/day oral): 0.1 mg/dL
- GLU, Mean ([4]; 25 mg/kg/day oral): 280.0^# mg/dL
- T-CHO, Mean ([4]; 25 mg/kg/day oral): 125.0 mg/dL
- CRE, Mean ([4]; 50 mg/kg/day oral): 0.1 mg/dL
- GLU, Mean ([4]; 50 mg/kg/day oral): 213.6^# mg/dL
- T-CHO, Mean ([4]; 50 mg/kg/day oral): 138.7 mg/dL
- Glucose, summary ([4]; after induction of diabetic renal diseases): decreased in a dose-dependent manner
- GLU compared with disease control group ([4]; all administered groups (12.5, 25, 50 mg/kg)): statistically significantly reduced, and a clear dose dependence was observed
